Records with an inconclusive call do not appear.
Assay: LMP1 TES1 pathway selectivity over dsRED control – imaging, HEK293T, dual-color eGFP/dsRED, cherry-picks, selectivity assay for LMP1 NF-kB inhibitor project, dose response (AID 588398)
Details: HEK293T LMP1 TES1-eGFP reporter, 48 h, dsRED channel counter-screen

SMILES | AC50 [µM]
Cc1cc(C)n(-c2ccc(NN=C(C#N)C#N)cc2)n1 | 5.01
CC(=O)NC(c1ccc(Cl)cc1)c1ccc2cccnc2c1O (stereo not given) | 4.14
c1nc(NCc2ccc3c(c2)OCO3)c2cc(-c3ccoc3)ccc2n1 | 1.56
CCN(CC)S(=O)(=O)c1ccc(N/N=C/c2ccc(O)cc2O)nc1 | 4.19
O=Cc1ccc(-c2cccs2)s1 | 2.71
CC1CCN(C(=O)/C(=C\c2cccs2)NC(=O)c2ccccc2)CC1 | > 19.5
COc1cc([C@@H]2c3cc4c(cc3[C@@H](O[C@@H]3O[C@@H]5CO[C@@H](C)O[C@H]5[C@H](O)[C@H]3O)[C@H]3COC(=O)[C@H]23)OCO4)cc(OC)c1O | 14.5
COc1cccc(/C=N/NC(=O)c2[nH]nc3c2CCc2ccccc2-3)c1O | 5.87
NC(=S)N/N=C/c1ncc(C(F)(F)F)cc1Cl | 12.1
N#CC(C#N)c1ccnc2ccccc12 | 6.14
Cc1ccc(-c2csc(=Nc3cccnc3)n2CCCn2ccnc2)cc1C | 5.1
COc1ccc(-c2csc3ncnc(Sc4nnnn4C)c23)cc1 | 10.5
COc1cccc(/C=N/Nc2nccnc2Cl)c1O | 12.1
S=C(NN=Cc1ccccn1)Nc1ccccn1 | > 19.5
O=C(N/N=C/c1ccc(O)cc1O)c1ccc(CN2C(=O)c3cccc4cccc2c34)cc1 | 12.7
CCOC(=O)c1c(-n2cccc2)sc2c1CCCC2=O | 11
Cc1ccc(C(=O)Nc2cccc(C(F)(F)F)c2)cc1Nc1ncnc2nc[nH]c12 | 9.97
CCn1c2ccccc2c2cc(/C=N/NC(=O)c3ccncc3)ccc21 | 1.68
CN1CCN(/N=C/c2ccc(N(c3ccccc3)c3ccccc3)cc2)CC1 | 0.505
O=[N+]([O-])c1ccc2ncnc(N3CCN(Cc4ccc5c(c4)OCO5)CC3)c2c1 | 2.87
COc1cccc(/C=N/Nc2nc3ccccc3[nH]2)c1O | 12
COc1cccc(/C=N/Nc2ncnc(Cl)c2N)c1O | 3.08
CCC(=O)NC(c1ccc(C)cc1)c1ccc2cccnc2c1O (stereo not given) | 3.61
CC[C@]1(C(=O)OC)[C@H]2C(=O)N(Cc3ccccc3)C(=O)[C@H]2[C@H]2CN=C(SCc3ccc(C#N)cc3)N21 | 2.82
C#CCN(C[C@@H]1[C@@H](OC(=O)NCc2ccccc2F)[C@@H](OC(=O)NCc2ccccc2F)Cn2c(=O)ccc(=O)n21)S(=O)(=O)c1ccc(C)cc1 | 3.9

SMILES | AC50 [µM]
O=C(c1ccccc1)C(CCC(CN1CCOCC1)C(=O)c1ccccc1)CN1CCOCC1 (stereo not given) | 1.99
O=C(N/N=C/c1cc2c3c(c1O)CCCN3CCC2)c1ccccc1O | 8.25
O=C(NN=Cc1ccc(N(CCCl)CCCl)cc1Cl)c1cccnc1 | 1.58
O=C(CF)N(O)c1ccc(C=Cc2ccccc2)cc1 | 1.51
Cc1nn(-c2ccccc2)c(Cl)c1C1C(C#N)=C(N)Oc2n[nH]c(C)c21 (stereo not given) | 11.5
N#CC(C#N)=NNc1ccc(-n2ccc(C(F)(F)F)n2)cc1 | 6.47
CCOC(=O)/C=C(\C)Sc1cc(=O)oc2ccccc12 | 8.75
CCCCC(=O)NC(c1ccc(OC)c(OC)c1)c1ccc2cccnc2c1O (stereo not given) | 13.6
C[n+]1c2n(c3ccccc31)N=C(c1cc(C(C)(C)C)c(O)c(C(C)(C)C)c1)CS2 | 10.8
C=C1C(=O)C2=CC1CCC(=O)C1(C)CCC(OC(C)=O)C(C)(C)C1CC2O (stereo not given) | 2.73
O=S(=O)(c1ccc2c(c1)C(=NO)c1cc(S(=O)(=O)N3CCCCC3)ccc1-2)N1CCCCC1 | > 19.5
CC(=NNC(=S)N1CCCC1)c1ccccn1 | 17.8
COc1ccc(-n2c(C)c(C(C)=O)c3cc(OC(C)=O)ccc32)cc1 | 1
CCC(=O)NC(c1ccc(Cl)cc1Cl)c1ccc2cccnc2c1O (stereo not given) | 4.23
CC(=NNC(=S)Nc1ccccc1Cl)c1ccccn1 | 1.37
CC(=C/c1ccccc1)/C=N/n1c(-c2ccncc2)n[nH]c1=S | 1.3
Cc1nnc(SCC(=O)N2CCC(c3noc4ccc(F)cc34)CC2)s1 | 1.69
O=c1c(O)c(-c2ccc(O)c(O)c2)oc2cc(O)cc(O)c12 | > 19.5
CCn1c2ccccc2c2cc(/C=N/n3c(-c4cc(C)[nH]n4)n[nH]c3=S)ccc21 | 0.862
CC1CC(C)C(=O)C(C(CC2CC(=O)NC(=O)C2)OC(=O)CC(=O)c2ccccc2)C1 (stereo not given) | 5.02
Cc1[nH]n(-c2ccc(Br)cc2)c(=O)c1/C=N/NC(=O)c1ccccc1 | 11.2
Oc1ccc(C=NNC(=S)Nc2ccccc2)nc1 | 11.1
O=C(N/N=C/c1ccc[nH]1)c1ccc(COc2cccc3cccnc23)cc1 | 19.2
CCC(=O)NC(c1cc(Cl)c2cccnc2c1O)C1CC1 (stereo not given) | 13
Cc1nn(-c2ccccc2)c(Cl)c1C(=O)N1CCN(c2ncnc3c2cnn3-c2ccccc2)CC1 | 12.9

SMILES | AC50 [µM]
Cc1cc(N2CCOCC2)c2c(N)c(Br)cc(C)c2n1 | 3.34
C/C(=N/NC(=O)c1ccc(C(C)(C)C)cc1)c1ccccn1 | 14.3
Cc1ccc2[nH]c3c(c2c1)CCCC3NC(=O)CCl (stereo not given) | 3.25
COc1ccc(-c2csc(Nc3cccc(C)n3)n2)cc1OC | > 19.5
CCOc1ccc(Nc2ncnc3ccc([N+](=O)[O-])cc23)cc1 | 1.93
CCCN(CC)c1ncnc2[nH]ncc12 | 1.41
CN(CCNC(=O)C1CCN(S(=O)(=O)N2CCOCC2)CC1)CCc1ccccc1 | > 19.5
C=CCn1c(C)c(C(C)=O)c(N2CCN(C(c3ccccc3)c3ccccc3)CC2)nc1=S | > 19.5
CS(=O)(=O)c1ccc(Sc2nc3ccccc3s2)c([N+](=O)[O-])c1 | 3.22
CN1C(=O)N(C)c2ccc(C=O)c3cccc1c23 | 12.9
CCN(CC)c1ccc(/C=N/NC(=O)c2ccc3nc[nH]c3c2)c(O)c1 | 16.9
COc1ccc(C=C2CS(=O)(=O)CC(=Cc3ccc(OC)cc3)C2=O)cc1 | 1.61
O=C(N/N=C/c1sc2ccccc2c1O)c1cccc2ccccc12 | 4.27
Oc1ccc2ccccc2c1N=Nc1ccccn1 | 7.53
CCOc1ccc(/C=C/[N+](=O)[O-])c2ccccc12 | 4.38
CC[C@]1(C(=O)OC)[C@H]2C(=O)N(Cc3ccccc3)C(=O)[C@H]2[C@H]2CN=C(SCc3ccc(Cl)cc3)N21 | 1.32
O=C(Nc1ccc(C(=O)N2CCOCC2)cc1)Nc1cccc(C(F)(F)F)c1 | 0.966
CCCC(=O)NC(c1ccc(C)cc1)c1ccc2cccnc2c1O (stereo not given) | 4.12
CCCC(=O)NC(c1ccc(C(C)C)cc1)c1ccc2cccnc2c1O (stereo not given) | 4.16
COc1ccc(N/N=C/c2c(C(=O)O)ccc3ccccc23)cc1 | 12.4
CCn1c2ccccc2c2cc(/C=N/NC(=O)c3cc(O)cc(O)c3)ccc21 | 2.14
CNc1cccnc1C=NNC(N)=S | 12.8
COc1ccc(-c2csc3ncnc(NCCCO)c23)cc1 | 4.81
CC1=C(C(=O)OCc2ccc3c(c2)OCO3)C(c2ccc(Cl)cc2)NC(=O)N1 (stereo not given) | 0.1
COc1ccc(N2Cc3ccccc3C2=O)cc1 | > 19.5

SMILES | AC50 [µM]
Cc1ccccc1C(=O)N1CCN(c2ccc(NC(=O)CSc3ccc(Cl)cc3)cc2)CC1 | 0.253
Cc1cc(C)nc(N/C(=N\S(=O)(=O)Cc2ccccc2)Nc2ccccc2Br)n1 | 18.1
CC(=NNc1nc2ccccc2s1)c1ncccn1 | 7.33
COC(=O)[C@@]1(Cc2ccccc2)[C@H]2C(=O)N(Cc3ccccc3)C(=O)[C@H]2[C@H]2CN=C(SCc3ccc(Cl)cc3)N21 | 2.49
C#CCN(C[C@@H]1[C@@H](OC(=O)NCC2CCCCC2)[C@@H](OC(=O)NCC2CCCCC2)Cn2c(=O)ccc(=O)n21)S(=O)(=O)c1ccc(C)cc1 | 2.83
CC(=NNc1nc2ccccc2o1)c1cc2ccccc2cn1 | 3.99
CC(=NNC(=S)Nc1ccccc1)c1ccccn1 | 1.37
CC(=O)NC(c1ccc(Cl)cc1Cl)c1ccc2cccnc2c1O (stereo not given) | 5.82
CC(C)(O)C#Cc1ccc([C@@H]2C[C@H]3CN(c4ccccc4)C(=O)[C@]34CCCN24)s1 | 14.9
NC(=S)NN=Cc1nccc2c(C(F)(F)F)cccc12 | 4.06
CCN1CCN(Cc2ccc(NC(=O)c3ccc(C)c(NC(=O)c4ccno4)c3)cc2C(F)(F)F)CC1 | 0.0579
c1ccc(C(=NNc2nc3ccccc3s2)c2ccccn2)cc1 | 1.48
O=C(N/N=C/c1c(O)ccc2ccccc12)c1cccnc1 | 4.3
NC(=O)c1sc2nccc(Nc3ccccc3)c2c1N | 4.04
COc1cc(C=C2CCCC(=Cc3ccc(OCC4CO4)c(OC)c3)C2=O)ccc1OCC1CO1 (stereo not given) | 8.08
NC(=S)NN=Cc1nccc2c(C(F)(F)C(F)(F)C(F)(F)F)cccc12 | 1.27
N#Cc1ncc(N=Cc2ccc(N(CCCl)CCCl)cc2)s1 | 12.6
COC(=O)[C@@]1(C)[C@H]2C(=O)N(Cc3ccccc3)C(=O)[C@H]2[C@H]2CN=C(SCc3ccc(Cl)cc3)N21 | 2.41
Cc1cc(=O)[nH]c(NN=Cc2cc(Br)ccc2O)n1 | 8.82
COc1ccc(-n2c(C)c([N+](=O)[O-])c3ccc(O)c(CN(C)C)c32)cc1 | 0.665
CCC(C)Nc1nc(-c2ccccn2)nc2ccccc12 (stereo not given) | 8.45
CC(=NNc1nc2ccccc2o1)c1ncccn1 | 1.13
CC(=NNC(=S)N1CC2CCC(CC2)C1)c1nccs1 | 4.15
CC1Cc2ccccc2N1c1ncnc(N)c1[N+](=O)[O-] (stereo not given) | 0.411
OCCCNc1nccc(-c2cc(Nc3cccc(Cl)c3)ncn2)n1 | 4.72
